Source: patent US4492711A, “Benzamides, their salts, and pharmaceutical compositions containing them” (SANOFI, priority 1982, dated 1985)

What was measured:
[1] = molecular target: T1, gastric histamine H2 receptors (Rattus norvegicus, UniProt P25102); assay: Antagonism of gastric hypersecretion induced by histamine in the atropinized rat (Ghosh and Schild modified according to Black et al.); format: in vivo; settings: intravenous; for Relative potency (cimetidine = 1): ID50-based, compared to cimetidine; for ED50: single dose, histamine i.v. infusion 15 mcmol/kg/hour, read-out: ID50 (dose which inhibits by 50% the gastric hypersecretion induced by histamine)
T1 construct: the gastric secretion is measured by perfusion of a physiological solution at a constant speed in the stomach of the animal; from tissue; host or cells: stomach of the living atropinized rat (in vivo, perfused stomach)
Experimental: According to this test, a gastric acid hypersecretion is induced by intravenous infusion of a sub-maximal dose of histamine equivalent to 15 mcmol/kg/hour and the gastric secretion is measured by perfusion of a physiological solution at a constant speed in the stomach of the animal.
The ID50 represents the index of the gastric H2 -blocking action.

gastric acid secretion = settings: as oxalate; cited from earlier work
[2] = system: hypersecretion induced by dimaprit; assay: Antisecretory activity in the cat bearing a gastric fistula, dimaprit-induced hypersecretion (Emas et al.); format: in vivo; settings: cat with gastric fistula, intragastric
Description: The antisecretoy activity of the products of the present invention has been evaluated in the cat bearing a gastric fistula according to the method of Emas et al (Gastroenterology, 1960, 39, 771) by using, as hypersecretory agent, dimaprit at the dose of 640 mcg/kg/k.

T1 sequence (P25102 whole entry, the tested form may be a part): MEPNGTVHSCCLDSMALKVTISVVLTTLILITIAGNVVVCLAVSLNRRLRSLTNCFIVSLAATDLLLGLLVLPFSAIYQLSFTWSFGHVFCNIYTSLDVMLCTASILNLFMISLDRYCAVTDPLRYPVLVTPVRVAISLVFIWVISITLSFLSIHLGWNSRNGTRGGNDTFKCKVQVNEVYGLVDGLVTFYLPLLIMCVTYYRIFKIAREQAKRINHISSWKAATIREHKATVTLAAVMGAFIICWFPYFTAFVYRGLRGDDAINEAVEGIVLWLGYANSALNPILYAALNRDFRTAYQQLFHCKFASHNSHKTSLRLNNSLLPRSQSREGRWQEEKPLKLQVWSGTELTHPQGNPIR

Row | Relative potency (cimetidine = 1) [1] | ED50 [1] [µmol/kg] | SMILES | ED50, gastric acid secretion inhibiting activity in the rat (gastric acid secretion) [mg/kg] | antagonism of the hypersecretion induced by dimaprit ([2]; an hour before dimaprit perfusion (640 mcg/kg/k)) | activity relative to cimetidine against hypersecretion induced by dimaprit ([2]; an hour before dimaprit perfusion, cimetidine as reference)
1 | 1.90 | 0.5 | CNC(=NC#N)Nc1cccc(C(=O)NCCSCc2ccc(CN(C)C)o2)c1 [SR 57970, 3-(2-cyano-3-methylguanidino)-N-[2-(5-dimethylaminomethylfuran-2-ylmethylthio)ethyl]benzamide] |  |  | 
2 | 4.13 | 0.23 | CNC(=C[N+](=O)[O-])Nc1cccc(C(=O)NCCSCc2ccc(CN(C)C)o2)c1 [SR 58028 A, 3-[N-(1-methylamino-2-nitroethenyl)amino]-N-[2-(5-dimethylaminomethylfuran-2-ylmethylthio)ethyl]benzamide] |  |  | 
3 | 0.62 | 1.53 | CNC(=O)Nc1cccc(C(=O)NCCSCc2ccc(CN(C)C)o2)c1 [SR 57934, 3-(3-methylureido)-N-[2-(5-dimethylaminomethylfuran-2-ylmethylthio)ethyl]benzamide] |  |  | 

More lines, now with the values behind:

Row | SMILES | Relative potency (cimetidine = 1) [1] | ED50 [1] [µmol/kg] | ED50, gastric acid secretion inhibiting activity in the rat (gastric acid secretion) [mg/kg] | antagonism of the hypersecretion induced by dimaprit ([2]; an hour before dimaprit perfusion (640 mcg/kg/k)) | activity relative to cimetidine against hypersecretion induced by dimaprit ([2]; an hour before dimaprit perfusion, cimetidine as reference)
4 | CNC(=C[N+](=O)[O-])NCCSCc1ccc(CN(C)C)o1 [Ranitidine, N-[2-[[5-[(dimethylamino)methyl]furfuryl]thio]ethyl]-N'-methyl-2-nitro-1,1-ethenediamine, reference compound] | 3.80 |  |  |  | 
5 | CN(C)Cc1ccc(CSCCNC(=O)c2ccc(S(N)(=O)=O)cc2)o1 [Compound A, N-[2-(5-dimethylaminomethylfuran-2-ylmethylthio)ethyl]4-sulfamoylbenzamide, reference compound] | 0.42 |  | 2.54 |  | 
6 | CNC(=S)Nc1cccc(C(=O)NCCSCc2ccc(CN(C)C)o2)c1 [SR 57914, 3-(3-methylthioureido)-N-[2-(5-dimethylaminomethylfuran-2-ylmethylthio)ethyl]benzamide] | 2.11 | 0.45 |  | antagonizes in dose depending way the hypersecretion induced by dimaprit | at least equal to that of cimetidine
